Where two headings read alike, the source gives them in different places. Each block holds one compound with its values, some of them ahead of it.
Experiments:
[1] = cn_pd bond, 1,4-dioxane
[2] = Pharmacokinetic studies in Sprague Dawley rats; assay type: in vivo; details: rat, plasma, male Sprague Dawley rats
Protocol: The pharmacokinetics of test compounds were evaluated in male Sprague Dawley rats when administered via oral gavage and IV injection. The test compound was suspended in 0.5% methylcellulose for oral gavage and dissolved in 5% DMSO/5% Solutol/90% saline for IV injection. The animals were fasted overnight before administration. Plasma samples were collected predose and at 0.5, 1, 3, 6, 9, 12, and 24 hours postdose. The samples were analyzed by LC/MS/MS and the concentration of test compound at each timepoint was determined by linear regression. Pharmacokinetic parameters were calculated from the plasma concentrations using Pheonix WinNonlin.

[3] = system: INFα induced pSTAT5; assay: INFα induced pSTAT5 in human PBMC; assay type: cell-based; details: Homo sapiens, PBMC, INFα 5000 units/ml, read-out: p-STAT5 IC50
Protocol: Fresh Human PBMCs were resuspended in RPMI 1640 medium with 10% FBS. Cells were seeded in a round bottom 96-well plate at the concentration of 200,000 cells/well. A 10-point dilution series of test compound (top dose 10 uM, 1:5 dilution) was added to the well using the liquid dispenser (Tecan D300e) and incubated for 1 hour at 37 C. Then human INFα recombinant protein (R&D Systems) was added to the well at the final concentration of 5000 units/ml and incubated for 15 minutes at 37 C. Cell lysates were prepared and analyzed by Phospho STAT3 (Tyr705) cellular kit (Cisbio) or Phospho STAT5 (Tyr693) Kit (Meso Scale Discovery) following manufacturer's protocol.
For calculation of the inhibition rate, the relative pSTAT signal of each well=pSTAT signal of each well−the average pSTAT signal of baseline.
The inhibition %=(the average pSTAT signal of INFα treatment wells—the relative of pSTAT signal in each compound containing well)/the average pSTAT signal of INFα treatment wells * 100%
The curve was plotted as the inhibition % (y-axis) vs. compounds concentration (x-axis) and was fitted with log(inhibitor) vs. normalized response—Variable slope by GraphPad Prism7.0.

Compound: CNC(=O)Oc1cc(Cl)nn2c(C(=O)NC3CC(OCc4ccc(OC)c([N+](=O)[O-])c4)C3)cnc12 (stereo not shown)
ring closure, isolated yield ([1]; the molecule shown is the open-chain precursor, 15-membered ring, tBuXPhos-Pd-G3/Cs2CO3, 50.0 mM, 80.0 °C): 20.2%

Compound: COc1c(F)cc2cc1Nc1cc(N(C)C(=O)OC(C)(C)C)n3ncc(c3n1)C(=O)N[C@H](C)COC2
ring closure, isolated yield ([1]; from COc1c(N)cc(COC[C@@H](C)NC(=O)c2cnn3c(N(C)C(=O)OC(C)(C)C)cc(Cl)nc23)cc1F, 14-membered ring, tBuXPhos-Pd-G3/Cs2CO3, 8.4 mM, 80.0 °C, 2.0 h): 52.5%

Compound: COc1c(F)cc2cc1Nc1cc(NC(=O)OC(C)(C)C)c3ncc(n3n1)C(=O)N[C@H](C)COC2
ring closure, isolated yield ([1]; from COc1c(N)cc(COC[C@@H](C)NC(=O)c2cnc3c(NC(=O)OC(C)(C)C)cc(Cl)nn23)cc1F, 14-membered ring, tBuXPhos-Pd-G3/Cs2CO3, 8.4 mM, 80.0 °C, 2.0 h): 52.5%

Compound: COc1c2cc(c(F)c1F)COC[C@@H](C)NC(=O)c1cnc3c(NC(=O)OC(C)(C)C)cc(nn13)N2
ring closure, isolated yield ([1]; from COc1c(N)cc(COC[C@@H](C)NC(=O)c2cnc3c(NC(=O)OC(C)(C)C)cc(Cl)nn23)c(F)c1F, 14-membered ring, tBuXPhos-Pd-G3/Cs2CO3, 3.5 mM, 80.0 °C, 2.0 h): 47%

Compound: COc1cc(F)c2cc1Nc1cc(N(C)C(=O)OC(C)(C)C)c3ncc(n3n1)C(=O)NC(C)COC2 (stereo not shown)
ring closure, isolated yield ([1]; from COc1cc(F)c(COCC(C)NC(=O)c2cnc3c(N(C)C(=O)OC(C)(C)C)cc(Cl)nn23)cc1N, 14-membered ring, tBuXPhos-Pd-G3/Cs2CO3, 4.1 mM, 85.0 °C, 2.0 h): 53.6%

Compound: COc1cc(F)c2cc1Nc1cc(N(C)C(=O)OC(C)(C)C)n3ncc(c3n1)C(=O)N[C@H](C)COC2
ring closure, isolated yield ([1]; from COc1cc(F)c(COC[C@@H](C)NC(=O)c2cnn3c(N(C)C(=O)OC(C)(C)C)cc(Cl)nc23)cc1N, 14-membered ring, Pd2(dba)3/XPhos/Cs2CO3, 23.3 mM, 90.0 °C, 1.0 h): 74%

Compound: COc1cc(F)c2cc1Nc1cc(NC(=O)OC(C)(C)C)c3ncc(n3n1)C(=O)N[C@H](C)COC2
ring closure, isolated yield ([1]; from COc1cc(F)c(COC[C@@H](C)NC(=O)c2cnc3c(NC(=O)OC(C)(C)C)cc(Cl)nn23)cc1N, 14-membered ring, tBuXPhos-Pd-G3/Cs2CO3, 10.25 mM, 80.0 °C, 2.0 h): 56.1%

Compound: COc1cc2cnn3c2cc1Nc1cc(N(C)C(=O)OC(C)(C)C)c2ncc(n2n1)C(=O)NC(C)CC3 (stereo not shown)
ring closure, isolated yield ([1]; from COc1cc2cnn(CCC(C)NC(=O)c3cnc4c(N(C)C(=O)OC(C)(C)C)cc(Cl)nn34)c2cc1N, 14-membered ring, tBuXPhos-Pd-G3/Cs2CO3, 25.0 mM, 80.0 °C, 3.0 h): 59%

Compound: COc1ccc2cc1Nc1cc(N(C)C(=O)OC(C)(C)C)c3ncc(n3n1)C(=O)NC1(CC1)COC2
ring closure, isolated yield ([1]; from COc1ccc(COCC2(NC(=O)c3cnc4c(N(C)C(=O)OC(C)(C)C)cc(Cl)nn34)CC2)cc1N, 14-membered ring, tBuXPhos-Pd-G3/Cs2CO3, 15.0 mM, 85.0 °C, 2.0 h): 58.7%

Compound: COc1ccc2cc1Nc1cc(N(C)C(=O)OC(C)(C)C)c3ncc(n3n1)C(=O)N[C@H](C)CN(C)C2
ring closure, isolated yield ([1]; from COc1ccc(CN(C)C[C@@H](C)NC(=O)c2cnc3c(N(C)C(=O)OC(C)(C)C)cc(Cl)nn23)cc1N, 14-membered ring, Pd2(dba)3/XPhos/Cs2CO3, 56.0 mM, 95.0 °C, 3.5 h): 10.8%

Compound: COc1ccc2nc1Nc1cc(N(C)C(=O)OC(C)(C)C)n3ncc(c3n1)C(=O)N[C@H](C)COC2
ring closure, isolated yield ([1]; from COc1ccc(COC[C@@H](C)NC(=O)c2cnn3c(N(C)C(=O)OC(C)(C)C)cc(Cl)nc23)nc1N, 14-membered ring, Pd2(dba)3/XPhos/Cs2CO3, 6.3 mM, 95.0 °C, 3.5 h): 84.2%

Compound: COc1nnc2cc1Nc1cc(N(C)C(=O)OC(C)(C)C)n3ncc(c3n1)C(=O)N[C@H](C)COC2
ring closure, isolated yield ([1]; from COc1nnc(COC[C@@H](C)NC(=O)c2cnn3c(N(C)C(=O)OC(C)(C)C)cc(Cl)nc23)cc1N, 14-membered ring, tBuXPhos-Pd-G3/Cs2CO3, […], 80.0 °C, 2.0 h): 21.7%

Compound: C[C@@H]1COCc2cc(c(=O)n(C)n2)Nc2cc(N(C)C(=O)OC(C)(C)C)c3ncc(n3n2)C(=O)N1
ring closure, isolated yield ([1]; from C[C@H](COCc1cc(N)c(=O)n(C)n1)NC(=O)c1cnc2c(N(C)C(=O)OC(C)(C)C)cc(Cl)nn12, 14-membered ring, tBuXPhos-Pd-G3/Cs2CO3, […], 80.0 °C, 2.0 h): 78.2%

Compound: C[C@@H]1COCc2cc(c(=O)n(C)n2)Nc2cc(N(C)C(=O)OC(C)(C)C)n3ncc(c3n2)C(=O)N1
ring closure, isolated yield ([1]; from C[C@H](COCc1cc(N)c(=O)n(C)n1)NC(=O)c1cnn2c(N(C)C(=O)OC(C)(C)C)cc(Cl)nc12, 14-membered ring, tBuXPhos-Pd-G3/Cs2CO3, 19.0 mM, 85.0 °C, 2.0 h): 70%

Compound: C[C@@H]1COCc2cc(c3cn(C)nc3c2)Nc2cc(N(C)C(=O)OC(C)(C)C)n3ncc(c3n2)C(=O)N1
ring closure, isolated yield ([1]; from C[C@H](COCc1cc(N)c2cn(C)nc2c1)NC(=O)c1cnn2c(N(C)C(=O)OC(C)(C)C)cc(Cl)nc12, 14-membered ring, Pd2(dba)3/XPhos/Cs2CO3, 18.0 mM, 95.0 °C, 3.5 h): 82.2%

Compound: C[C@@H]1COCc2cc(c3nccn3c2)Nc2cc(N(C)C(=O)OC(C)(C)C)n3ncc(c3n2)C(=O)N1
ring closure, isolated yield ([1]; from C[C@H](COCc1cc(N)c2nccn2c1)NC(=O)c1cnn2c(N(C)C(=O)OC(C)(C)C)cc(Cl)nc12, 14-membered ring, tBuXPhos-Pd-G3/Cs2CO3, 11.5 mM, 80.0 °C, 2.0 h): 72%

Compound: C[C@@H]1COCc2ccc(F)c(c2)Nc2cc(N(C)C(=O)OC(C)(C)C)n3ncc(c3n2)C(=O)N1
ring closure, isolated yield ([1]; from C[C@H](COCc1ccc(F)c(N)c1)NC(=O)c1cnn2c(N(C)C(=O)OC(C)(C)C)cc(Cl)nc12, 14-membered ring, tBuXPhos-Pd-G3/Cs2CO3, 20.0 mM, 85.0 °C, 2.0 h): 30%

Compound: Cc1cc2nc(n1)COC[C@@H](C)NC(=O)c1cnc3c(N(C)C(=O)OC(C)(C)C)cc(nn13)N2
ring closure, isolated yield ([1]; from Cc1cc(N)nc(COC[C@@H](C)NC(=O)c2cnc3c(N(C)C(=O)OC(C)(C)C)cc(Cl)nn23)n1, 14-membered ring, Pd2(dba)3/XPhos/Cs2CO3, 40.0 mM, 80.0 °C, 1.0 h): 53%

AUC ([2]; iv, I.V. (1 mg/kg)): 472 ± 93 ng·h/mL
C0 ([2]; iv, I.V. (1 mg/kg)): 539 ± 54 ng/mL
clearance ([2]; iv, I.V. (1 mg/kg)): 36.1 ± 8 mL/min/kg
half-life ([2]; iv, I.V. (1 mg/kg)): 1.02 ± 0.059 h
Vd ([2]; iv, I.V. (1 mg/kg), read-out: Vdss): 2.17 ± 0.08 L/kg
AUC ([2]; Oral (5 mg/kg)): 147 ± 40 ng·h/mL
Cmax ([2]; Oral (5 mg/kg)): 22.2 ± 5 ng/mL
Tmax ([2]; Oral (5 mg/kg)): 2.67 ± 1.2 h
bioavailability ([2]; Oral (5 mg/kg)): 6.23 ± 1.7%
half-life ([2]; Oral (5 mg/kg)): 4.11 ± 1.9 h
IC50 [3]: 5.1 nM
Compound: CNc1cc2nn3c(cnc13)C(=O)N[C@H](C)COCc1cc(c(=O)n(C)c1)N2 [Example 15]

IC50 [3]: 21.2 nM
Compound: CNc1cc2nc3c(cnn13)C(=O)N[C@H](C)COCc1cc(c(=O)n(C)n1)N2 [Example 57, (R,1^3E,1^4E,3^4E)-31,7-dimethyl-1^7-(methylamino)-3^1,3^6-dihydro-5-oxa-2,8-diaza-1(5,3)-pyrazolo[1,5-a]pyrimidina-3(5,3)-pyridazinacyclononaphane-36,9-dione]

IC50 [3]: 7.7 nM
Compound: CNc1cc2nn3c(cnc13)C(=O)N[C@H](C)COCc1cc(c(=O)n(C)n1)N2 [Example 58, (15E,34E,7R)-31,7-dimethyl-18-(methylamino)-31,36-dihydro-5-oxa-2,8-diaza-1(6,3)-imidazo[1,2-b]pyridazina-3(5,3)-pyridazinacyclononaphane-36,9-dione]

IC50 [3]: 39.1 nM
Compound: CNc1cc2nc3c(cnn13)C(=O)N[C@H](C)COCc1cc(c(OC)nn1)N2 [Example 59, (R,1^3E,1^4E)-3^6-methoxy-7-methyl-1^7-(methylamino)-5-oxa-2,8-diaza-1(5,3)-pyrazolo[1,5-a]pyrimidina-3(5,3)-pyridazinacyclononaphan-9-one]

IC50 [3]: 3.8 nM
Compound: CNc1cc2nc3c(cnn13)C(=O)N[C@H](C)COCc1cc(c3nccn3c1)N2 [Example 60, (R,1^3E,1^4E,3^7E)-7-methyl-1^7-(methylamino)-5-oxa-2,8-diaza-1(5,3)-pyrazolo[1,5-a]pyrimidina-3(8,6)-imidazo[1,2-a]pyridinacyclononaphan-9-one]

IC50 [3]: 3.8 nM
Compound: CNc1cc2nc3c(cnn13)C(=O)N[C@H](C)COCc1cc(F)c(OC)c(c1)N2 [Example 62]
